Reference: ChEMBL document CHEMBL3044851, “Immunomodulatory active steroidal saponins from Asparagus racemosus” (Med Chem Res, 2013)
Active and inactive are the calls of the source. The calls are words filed in the database; no cut-off is given here.

Key:
[1] = test system: PMN; test: Immunomodulatory activity in Homo sapiens (human) PMN cells assessed as increase in reactive oxygen species formation at 1 uM at 40 min after luminal addition by chemiluminescence assay; assay type: functional, cell-based
[2] = test system: PMN; test: Immunomodulatory activity in Homo sapiens (human) PMN cells assessed as increase in superoxide species generation at 1 uM after 2 hr by NBT assay; assay type: functional, cell-based
[3] = test system: PMN; test: Immunomodulatory activity in Homo sapiens (human) PMN cells assessed as increase in reactive oxygen species formation at 1 uM at 0 min after luminal addition by chemiluminescence assay; assay type: functional, cell-based
[4] = test system: PMN; test: Immunomodulatory activity in Homo sapiens (human) PMN cells assessed as increase in NO release at 1 uM after 1 hr by ELISA plate reader analysis; assay type: functional, cell-based
[5] = test system: PMN; test: Immunomodulatory activity in Homo sapiens (human) PMN cells assessed as increase in reactive oxygen species formation at 0 min after luminal addition by chemiluminescence assay; assay type: functional, cell-based
[6] = test system: PMN; test: Immunomodulatory activity in Homo sapiens (human) PMN cells assessed as increase in superoxide species generation at 0.001 to 0.0075 ug/ml after 2 hr by NBT assay; assay type: functional, cell-based
[7] = Immunomodulatory activity in Homo sapiens (human) PMN cells assessed as induction of phagocytosis using Candida albicans as an infectious organism at 0.005 ug/ml after 1 hr by Giemsa staining based microscopic analysis (reference value: 27.33 +/-2.52%); assay type: functional
[8] = test system: PMN; test: Immunomodulatory activity in Homo sapiens (human) PMN cells assessed as increase in phagocytic index using Candida albicans as an infectious organism after 1 hr by Giemsa staining based microscopic analysis; assay type: functional, cell-based
[9] = Immunomodulatory activity in Homo sapiens (human) PMN cells assessed as induction of phagocytosis using Candida albicans as an infectious organism at 0.0075 ug/ml after 1 hr by Giemsa staining based microscopic analysis (reference value: 27.33 +/-2.52%); assay type: functional
[10] = Cytotoxicity against Homo sapiens (human) PMN cells assessed as cell viability at 0.001 ug/ml by trypan blue dye exclusion test (reference value: 83.94 +/-5.05%); assay type: cell-based; settings: read-out: Activity
[11] = Immunomodulatory activity in Homo sapiens (human) PMN cells assessed as induction of phagocytosis using Candida albicans as an infectious organism at 1 uM after 1 hr by Giemsa staining based microscopic analysis (reference value: 27.33 +/-2.52%); assay type: functional
[12] = Immunomodulatory activity in Homo sapiens (human) PMN cells assessed as induction of phagocytosis using Candida albicans as an infectious organism at 0.001 ug/ml after 1 hr by Giemsa staining based microscopic analysis (reference value: 27.33 +/-2.52%); assay type: functional
[13] = Cytotoxicity against Homo sapiens (human) PMN cells assessed as cell viability at 0.0075 ug/ml by trypan blue dye exclusion test (reference value: 83.94 +/-5.05%); assay type: cell-based; settings: read-out: Activity
[14] = Cytotoxicity against Homo sapiens (human) PMN cells assessed as cell viability at 0.01 ug/ml by trypan blue dye exclusion test (reference value: 83.94 +/-5.05%); assay type: cell-based; settings: read-out: Activity
[15] = Cytotoxicity against Homo sapiens (human) PMN cells assessed as cell viability at 0.1 ug/ml by trypan blue dye exclusion test (reference value: 83.94 +/-5.05%); assay type: cell-based; settings: read-out: Activity
[16] = Cytotoxicity against Homo sapiens (human) PMN cells assessed as cell viability at 1 ug/ml by trypan blue dye exclusion test (reference value: 83.94 +/-5.05%); assay type: cell-based; settings: read-out: Activity
[17] = Cytotoxicity against Homo sapiens (human) PMN cells assessed as cell viability at 0.5 ug/ml by trypan blue dye exclusion test (reference value: 83.94 +/-5.05%); assay type: cell-based; settings: read-out: Activity
[18] = test system: PMN; test: Immunomodulatory activity in Homo sapiens (human) PMN cells assessed as increase in NO release at 0.001 to 0.0075 ug/ml after 1 hr by ELISA plate reader analysis; assay type: functional, cell-based
[19] = Cytotoxicity against Homo sapiens (human) PMN cells assessed as cell viability at 0.005 ug/ml by trypan blue dye exclusion test (reference value: 83.94 +/-5.05%); assay type: cell-based; settings: read-out: Activity
[20] = test system: PMN; test: Immunomodulatory activity in Homo sapiens (human) PMN cells assessed as increase in reactive oxygen species formation at 0.001 to 0.0075 ug/ml at 40 min after luminal addition by chemiluminescence assay; assay type: functional, cell-based
[21] = test system: PMN; test: Immunomodulatory activity in Homo sapiens (human) PMN cells assessed as increase in reactive oxygen species formation at 0.001 ug/ml at 0 min after luminal addition by chemiluminescence assay; assay type: functional, cell-based
[22] = test system: PMN; test: Immunomodulatory activity in Homo sapiens (human) PMN cells assessed as increase in reactive oxygen species formation at 0.001 ug/ml at 40 min after luminal addition by chemiluminescence assay; assay type: functional, cell-based
[23] = test system: PMN; test: Immunomodulatory activity in Homo sapiens (human) PMN cells assessed as increase in phagocytic index using Candida albicans as an infectious organism at 0.005 ug/ml after 1 hr by Giemsa staining based microscopic analysis; assay type: functional, cell-based

Structure (SMILES) | Activity [6] | Activity [7] [%] | Activity [9] [%] | viability at 0.001 ug/ml [10] [%] | Activity [11] [%] | Activity [12] [%] | viability at 0.0075 ug/ml [13] [%] | Activity [18] | viability at 0.005 ug/ml [19] [%] | further results
CCCCCCCCCCCCCC(=O)O[C@@H]1[C@@H](C)[C@@]2(O)[C@@H](C=C(CO)C[C@]3(O)C(=O)C(C)=C[C@@H]23)[C@@H]2C(C)(C)[C@]12OC(C)=O |  |  |  |  |  |  |  |  |  | Activity [1]: Active; Activity [2]: Active; Activity [3]: Active; Activity [4]: Active
C[C@H]1CC[C@@]2(OC1)O[C@H]1C[C@H]3[C@@H]4CC[C@@H]5C[C@@H](O[C@@H]6O[C@H](CO[C@@H]7O[C@@H](C)[C@H](O)[C@@H](O)[C@H]7O)[C@@H](O)[C@H](O)[C@H]6O[C@@H]6OC[C@H](O)[C@H](O)[C@H]6O)CC[C@]5(C)[C@H]4CC[C@]3(C)[C@H]1[C@@H]2C [SHATAVAROSIDE A] | Active | 29.33 | 23.5 | 100 | 35 | 32 | 100 | Active | 100 | Activity [5]: Dose-dependent effect; Activity [8]: Dose-dependent effect; viability at 0.01 ug/ml [14]: 72.3%; viability at 0.1 ug/ml [15]: 71.7%; viability at 1 ug/ml [16]: 76.2%; viability at 0.5 ug/ml [17]: 71.2%; Activity [20]: Active
C[C@H]1CC[C@@]2(OC1)O[C@H]1C[C@H]3[C@@H]4CC[C@@H]5C[C@@H](O[C@@H]6O[C@H](CO[C@@H]7O[C@@H](C)[C@H](O)[C@@H](O)[C@H]7O)[C@@H](O[C@@H]7OC[C@@H](O)[C@H](O)[C@H]7O)[C@H](O)[C@H]6O[C@@H]6O[C@H](CO)[C@@H](O)[C@H](O)[C@H]6O)CC[C@]5(C)[C@H]4CC[C@]3(C)[C@H]1[C@@H]2C [SHATAVAROSIDE B] | Active | 28.17 | 26.33 | 94.2 | 35 | 36.83 | 91 | Active | 92.8 | Activity [21]: Active; Activity [22]: Active; Activity [23]: Active
